# Reference: patent publication US20060281771A1, “SYNERGISTIC MODULATION OF FLT3 KINASE USING AMINOQUINOLINE AND AMINOQUINAZOLINE KINASE MODULATORS” (priority 2005, published 2006)
# pIC50: −log10 of the molar value.
# System: MV4-11 cells
# Assay: Inhibition of MV4-11 cell proliferation (CellTiterGlo, 72 h)
# Type: cell-based
# Details: Homo sapiens; 72 h growth inhibition
# Description: To assess the cellular potency of the FLT3 inhibitors of Formula I′, FLT3 specific growth inhibition was measured in the leukemic cell line MV4-11 (ATCC Number: CRL-9591). […] MV4-11 cells cannot grow and survive without active FLT3ITD.
# To measure proliferation inhibition by test compounds, the luciferase based CellTiterGlo reagent (Promega), which quantifies total cell number based on total cellular ATP concentration, was used. Cells are plated at 10,000 cells per well in 100 ul of in RPMI media containing penn/strep, 10% FBS and 1 ng/ml GM-CSF or 1 ng/ml IL-3 for MV4-11 and Baf3 cells respectively.
# Compound dilutions or 0.1% DMSO (vehicle control) are added to cells and the cells are allowed to grow for 72 hours at standard cell growth conditions (37° C., 5% CO2). For activity measurements in MV4-11 cells grown in 50% plasma, cells were plated at 10,000 cells per well in a 1:1 mixture of growth media and human plasma (final volume of 100 μL). To measure total cell growth an equal volume of CellTiterGlo reagent was added to each well, according to the manufacturer's instructions, and luminescence was quantified. Total cell growth was quantified as the difference in luminescent counts (relative light units, RLU) of cell number at Day 0 compared to total cell number at Day 3 (72 hours of growth and/or compound treatment). One hundred percent inhibition of growth is defined as an RLU equivalent to the Day 0 reading. Zero percent inhibition was defined as the RLU signal for the DMSO vehicle control at Day 3 of growth. All data points are an average of triplicate samples. […] Inhibition and IC50 data analysis was done with GraphPad Prism using a non-linear regression fit with a multiparamater, sigmoidal dose-response (variable slope) equation.
# MV4-11 cells express the FLT3 internal tandem duplication mutation, and thus are entirely dependent upon FLT3 activity for growth. […] In contrast, the Baf3 cell proliferation is driven by the cytokine IL-3 and thus are used as a non-specific toxicity control for test compounds.
row,SMILES,pIC50
1,CC(C)Oc1ccc(NC(=O)OC2CCN(c3ccnc4ccccc34)CC2)cc1 [Compound 41],< 5.00
2,"COc1cc2ncc(C#N)c(N3CCC(OC(=O)Nc4ccc(C(C)C)cc4)CC3)c2cc1OC [Compound 42, (4-Isopropyl-phenyl)-carbamic acid 1-(3-cyano-6,7-dimethoxy-quinolin-4-yl)-piperidin-4-yl ester]",5.68
3,"COc1cc2ncnc(N3CCC(NC(=O)Nc4ccc(N5CCOCC5)cc4)C3)c2cc1OC (centres unmarked) [Compound 43, 1-[1-(6,7-Dimethoxy-quinazolin-4-yl)-pyrrolidin-3-yl]-3-(4-morpholin-4-yl-phenyl)-urea]",< 5.30
4,"COc1cc2ncnc(N3CCC(NC(=O)Nc4ccc(OC5CCC5)nc4)C3)c2cc1OC (centres unmarked) [Compound 44, 1-(6-Cyclobutoxy-pyridin-3-yl)-3-[1-(6,7-dimethoxy-quinazolin-4-yl)-pyrrolidin-3-yl]-urea]",6.00
5,"COc1cc2ncnc(N3CCC(NC(=O)Nc4ccc(OC5CCCC5)nc4)C3)c2cc1OC (centres unmarked) [Compound 45, 1-(6-Cyclopentyloxy-pyridin-3-yl)-3-[1-(6,7-dimethoxy-quinazolin-4-yl)-pyrrolidin-3-yl]-urea]",5.96
6,"COc1cc2ncnc(N3CCC(NC(=O)Nc4ccc(N5CCCC5)nc4)C3)c2cc1OC (centres unmarked) [Compound 46, 1-[1-(6,7-Dimethoxy-quinazolin-4-yl)-pyrrolidin-3-yl]-3-(6-pyrrolidin-1-yl-pyridin-3-yl)-urea]",5.46
7,"COc1cc2ncnc(N3CCC(NC(=O)Nc4ccc(N5CCCCC5)cc4)C3)c2cc1OC (centres unmarked) [Compound 47, 1-[1-(6,7-Dimethoxy-quinazolin-4-yl)-pyrrolidin-3-yl]-3-(4-piperidin-1-yl-phenyl)-urea]",5.41
8,"COc1cc2ncnc(N3CCC(NC(=O)Nc4ccc(Cl)cc4)C3)c2cc1OC (centres unmarked) [Compound 48, 1-(4-Chloro-phenyl)-3-[1-(6,7-dimethoxy-quinazolin-4-yl)-pyrrolidin-3-yl]-urea]",5.60
9,"COc1cc2ncnc(N3CCC(NC(=O)Nc4ccc(C5CCCCC5)cc4)C3)c2cc1OC (centres unmarked) [Compound 50, 1-(4-Cyclohexyl-phenyl)-3-[1-(6,7-dimethoxy-quinazolin-4-yl)-pyrrolidin-3-yl]-urea]",5.77
10,"COc1cc2ncnc(N3CCC(NC(=O)Nc4ccc(Oc5ccccc5)cc4)C3)c2cc1OC (centres unmarked) [Compound 51, 1-[1-(6,7-Dimethoxy-quinazolin-4-yl)-pyrrolidin-3-yl]-3-(4-phenoxy-phenyl)-urea]",5.92
11,"COc1cc2ncnc(N3CCC(NC(=O)Nc4ccc(OC5CCCC5)cc4)C3)c2cc1OC (centres unmarked) [Compound 53, 1-(4-Cyclopentyloxy-phenyl)-3-[1-(6,7-dimethoxy-quinazolin-4-yl)-pyrrolidin-3-yl]-urea]",5.82
12,"COc1cc2ncnc(N3CCC(OC(=O)Nc4ccc(OC5CCCC5)cc4)C3)c2cc1OC (centres unmarked) [Compound 54, (4-Cyclopentyloxy-phenyl)-carbamic acid 1-(6,7-dimethoxy-quinazolin-4-yl)-pyrrolidin-3-yl ester]",5.82
13,"COc1cc2ncnc(N3CCC(COC(=O)Nc4ccc(OC5CCCC5)cc4)CC3)c2cc1OC [Compound 56, (4-Cyclopentyloxy-phenyl)-carbamic acid 1-(6,7-dimethoxy-quinazolin-4-yl)-piperidin-4-ylmethyl ester]",6.13
14,"COc1cc2ncnc(N3CCC(NC(=O)Nc4ccc(Cl)cc4)CC3)c2cc1OC [Compound 61, 1-(4-Chloro-phenyl)-3-[1-(6,7-dimethoxy-quinazolin-4-yl)-piperidin-4-yl]-urea]",5.03
